Experimental data from article PMC12860872, “Preclinical evaluation of DOTAGA.Glu.(FAPI)2 and DO3A.Glu.(FAPI)2 as theranostics with human dosimetry extrapolation to lutetium-177 and terbium-161 analogs” (European Journal of Nuclear Medicine and Molecular Imaging, 2025).

What was measured:
PREP = system: PREP; set-up: method as in Martin et al. 2023 (15); settings: ref Martin et al. 2023 (15); cited from earlier work
DPP4 = system: DPP4; set-up: method as in Martin et al. 2023 (15); settings: ref Martin et al. 2023 (15); cited from earlier work
DPP8 = system: DPP8; set-up: method as in Martin et al. 2023 (15); settings: ref Martin et al. 2023 (15); cited from earlier work
PC3-mice = assay: Biodistribution in PC3-mice incl. blocking; format: in vivo, mouse; settings: PC3-model
Protocol: Male athymic Balb/C nude mice (6 weeks/20–25 g) were implanted with PC3 cells (3.5 × 10^6/100 µL PBS) into their right shoulder to develop tumors. The animals were used for biodistribution and PET/SPECT/CT imaging studies, once tumors reached 250–300 mm^3.
All mice were euthanized with intraperitoneal injection of pentobarbital (150 mg/kg), and selected organs were dissected, weighed, and measured for radioactivity using a gamma-counter. Results are expressed as % injected activity per gram tissue (% I.A./g), presented as mean ± SD (n = 3–4).

DPP9 = system: DPP9; set-up: method as in Martin et al. 2023 (15); settings: ref Martin et al. 2023 (15); cited from earlier work
FAP = system: FAP; set-up: method as in Martin et al. 2023 (15); settings: enzymatic assay; ref Martin et al. 2023 (15); cited from earlier work

In the case of `N#C[C@@H]1CC(F)(F)CN1C(=O)CNC(=O)c1ccnc2ccc(OCCCCNC(=O)CC[C@H](NC(=O)CN3CCN(CC(=O)O)CCN(CC(=O)O)CCN(CC(=O)O)CC3)C(=O)NCCCCOc3ccc4nccc(C(=O)NCC(=O)N5CC(F)(F)C[C@H]5C#N)c4c3)cc12` [DO3A.Glu.(FAPI)2], the IC50 (PREP) is listed as 1 ± 0.14 µM, the IC50 (DPP4) is listed as 0.54 ± 0.06 µM and the IC50 (DPP8) is listed as 1.03 ± 0.18 µM. For the same compound, the tumor uptake (PC3-mice; labeled with gallium-68) was ~ 20%, the tumor uptake (PC3-mice; labeled with lutetium-177) was ~ 16% and the IC50 (DPP9) was 0.95 ± 0.11 µM. The IC50 (FAP) was 0.0006 ± 4e-05 µM.

For `N#C[C@@H]1CC(F)(F)CN1C(=O)CNC(=O)c1ccnc2ccc(OCCCCNC(=O)CC[C@H](NC(=O)CCC(C(=O)O)N3CCN(CC(=O)O)CCN(CC(=O)O)CCN(CC(=O)O)CC3)C(=O)NCCCCOc3ccc4nccc(C(=O)NCC(=O)N5CC(F)(F)C[C@H]5C#N)c4c3)cc12` (stereo partly shown) [DOTAGA.Glu.(FAPI)2], the IC50 (PREP) is given as 0.59 ± 0.1 µM, the IC50 (DPP4) is given as 1.19 ± 0.08 µM and the IC50 (DPP8) is given as 0.029 ± 0.004 µM. The tumor uptake (PC3-mice; labeled with gallium-68) was ~ 20%, the tumor uptake (PC3-mice; labeled with lutetium-177) was ~ 16% and the IC50 (DPP9) was 0.083 ± 0.0015 µM. The IC50 (FAP) was 0.00026 ± 4e-05 µM.

For `N#C[C@@H]1CC(F)(F)CN1C(=O)CNC(=O)c1ccnc2ccc(OCCCCNC(=O)CC[C@H](NC(=O)CCC(C(=O)O)N3CCN(CC(=O)[O-])CCN(CC(=O)[O-])CCN(CC(=O)[O-])CC3)C(=O)NCCCCOc3ccc4nccc(C(=O)NCC(=O)N5CC(F)(F)C[C@H]5C#N)c4c3)cc12.[Lu+3]` (stereo partly shown) [[^natLu]Lu-DOTAGA.Glu.(FAPi)2], the IC50 (PREP) is listed as 0.43 ± 0.16 µM, the IC50 (DPP4) is listed as 0.65 ± 0.04 µM and the IC50 (DPP8) is listed as 0.22 ± 0.02 µM. The IC50 (DPP9) was 0.19 ± 0.01 µM and the IC50 (FAP) was 0.00033 ± 2e-05 µM.
